Test results reported in patent US10582709B2, “Butyrolactones as herbicides” (FMC Corporation, priority 2015, dated 2020).

What was measured:
Assay type in all cases: in vivo
kochia (Kochia scoparia) [1] = experiment: Test A preemergence, kochia; conditions: visual rating after approx. 10 d, 0 to 100 scale, 0 no effect, 100 complete control
Source text: (§1) Seeds of plant species selected from barnyardgrass (Echinochloa crus-galli), crabgrass (large crabgrass, Digitaria sanguinalis), kochia (Kochia scoparia), ragweed (common ragweed, Ambrosia elatior), morningglory (Ipomoea spp.), velvetleaf (Abutilon theophrasti), ryegrass, Italian (Italian ryegrass, Lolium multiflorum), foxtail, giant (giant foxtail, Setaria faberii), wheat (Triticum aestivum), corn (Zea mays), and pigweed (Amaranthus retroflexus), were planted into a blend of loam soil and sand and treated preemergence with a directed soil spray using test chemicals formulated in a non-phytotoxic solvent mixture which included a surfactant. At the same time, plants selected from these crop and weed species and also blackgrass (Alopecurus myosuroides), and galium (catchweed bedstraw, Galium aparine), were planted in pots containing the same blend of loam soil and sand and treated with postemergence applications of test chemicals formulated in the same manner. Plants ranged in height from 2 to 10 cm and were in the one- to two-leaf stage for the postemergence treatment. Treated plants and untreated controls were maintained in a greenhouse for approximately 10 d, after which time all treated plants were compared to untreated controls and visually evaluated for injury. Plant response ratings, summarized in Table A, are based on a 0 to 100 scale where 0 is no effect and 100 is complete control. A dash (-) response means no test result.

[2] = tested on: barnyardgrass (Echinochloa crus-galli); experiment: Test A preemergence, barnyardgrass; conditions: visual rating after approx. 10 d, 0 to 100 scale, 0 no effect, 100 complete control
Source text: as §1

[3] = tested on: ryegrass, Italian (Italian ryegrass, Lolium multiflorum); experiment: Test A postemergence, Italian ryegrass; conditions: visual rating after approx. 10 d, 0 to 100 scale, 0 no effect, 100 complete control
Source text: as §1

[4] = tested on: barnyardgrass (Echinochloa crus-galli); experiment: Test A postemergence, barnyardgrass; conditions: visual rating after approx. 10 d, 0 to 100 scale, 0 no effect, 100 complete control
Source text: as §1

corn (Zea mays) = experiment: Test A postemergence, corn; conditions: visual rating after approx. 10 d, 0 to 100 scale, 0 no effect, 100 complete control
Source text: as §1

[5] = tested on: foxtail, giant (giant foxtail, Setaria faberii); experiment: Test A preemergence, giant foxtail; conditions: visual rating after approx. 10 d, 0 to 100 scale, 0 no effect, 100 complete control
Source text: as §1

[6] = tested on: pigweed (Amaranthus retroflexus); experiment: Test A preemergence, pigweed; conditions: visual rating after approx. 10 d, 0 to 100 scale, 0 no effect, 100 complete control
Source text: as §1

[7] = tested on: wheat (Triticum aestivum); experiment: Test A postemergence, wheat; conditions: visual rating after approx. 10 d, 0 to 100 scale, 0 no effect, 100 complete control
Source text: as §1

[8] = tested on: pigweed (Amaranthus retroflexus); experiment: Test A postemergence, pigweed; conditions: visual rating after approx. 10 d, 0 to 100 scale, 0 no effect, 100 complete control
Source text: as §1

[9] = tested on: barnyardgrass (Echinochloa crus-galli); experiment: Test B flooded paddy test, barnyardgrass; conditions: applied to paddy water at 2-leaf stage, 13 to 15 d, scale 0 no effect to 100 complete control
Protocol: (§2) Plant species in the flooded paddy test selected from rice (Oryza sativa), sedge, umbrella (small-flower umbrella sedge, Cyperus difformis), ducksalad (Heteranthera limosa), and barnyardgrass (Echinochloa crus-galli) were grown to the 2-leaf stage for testing. At time of treatment, test pots were flooded to 3 cm above the soil surface, treated by application of test compounds directly to the paddy water, and then maintained at that water depth for the duration of the test. Treated plants and controls were maintained in a greenhouse for 13 to 15 d, after which time all species were compared to controls and visually evaluated. Plant response ratings, summarized in Table B, are based on a scale of 0 to 100 where 0 is no effect and 100 is complete control. A dash (-) response means no test result.

[10] = tested on: foxtail, giant (giant foxtail, Setaria faberii); experiment: Test A postemergence, giant foxtail; conditions: visual rating after approx. 10 d, 0 to 100 scale, 0 no effect, 100 complete control
Source text: as §1

rice (Oryza sativa) = experiment: Test B flooded paddy test, rice; conditions: applied to paddy water at 2-leaf stage, 13 to 15 d, scale 0 no effect to 100 complete control
Protocol: as §2

[11] = tested on: ducksalad (Heteranthera limosa); experiment: Test B flooded paddy test, ducksalad; conditions: applied to paddy water at 2-leaf stage, 13 to 15 d, scale 0 no effect to 100 complete control
Protocol: as §2

[12] = tested on: ragweed (common ragweed, Ambrosia elatior); experiment: Test A preemergence, ragweed; conditions: visual rating after approx. 10 d, 0 to 100 scale, 0 no effect, 100 complete control
Source text: as §1

[13] = tested on: ragweed (common ragweed, Ambrosia elatior); experiment: Test A postemergence, ragweed; conditions: visual rating after approx. 10 d, 0 to 100 scale, 0 no effect, 100 complete control
Source text: as §1

[14] = tested on: galium (catchweed bedstraw, Galium aparine); experiment: Test A postemergence, galium; conditions: visual rating after approx. 10 d, 0 to 100 scale, 0 no effect, 100 complete control
Source text: as §1

kochia (Kochia scoparia) [15] = experiment: Test A postemergence, kochia; conditions: visual rating after approx. 10 d, 0 to 100 scale, 0 no effect, 100 complete control
Source text: as §1

[16] = tested on: ryegrass, Italian (Italian ryegrass, Lolium multiflorum); experiment: Test A preemergence, Italian ryegrass; conditions: visual rating after approx. 10 d, 0 to 100 scale, 0 no effect, 100 complete control
Source text: as §1

[17] = tested on: blackgrass (Alopecurus myosuroides); experiment: Test A postemergence, blackgrass; conditions: visual rating after approx. 10 d, 0 to 100 scale, 0 no effect, 100 complete control
Source text: as §1

[18] = tested on: sedge, umbrella (small-flower umbrella sedge, Cyperus difformis); experiment: Test B flooded paddy test, umbrella sedge; conditions: applied to paddy water at 2-leaf stage, 13 to 15 d, scale 0 no effect to 100 complete control
Protocol: as §2

SMILES | Plant response rating, Ryegrass, Italian ([3]; 125 g ai/ha) | Plant response rating, Ryegrass, Italian ([3]; 500 g ai/ha) | Plant response rating, Barnyardgrass ([4]; 125 g ai/ha) | Plant response rating, Barnyardgrass ([4]; 500 g ai/ha) | Plant response rating, Corn (corn (Zea mays); 125 g ai/ha) | Plant response rating, Corn (corn (Zea mays); 500 g ai/ha) | Plant response rating, Wheat ([7]; 125 g ai/ha) | Plant response rating, Wheat ([7]; 500 g ai/ha) | Plant response rating, Pigweed ([8]; 125 g ai/ha) | Plant response rating, Pigweed ([8]; 500 g ai/ha) | Plant response rating, Flood, Barnyardgrass ([9]; 250 g ai/ha) | Plant response rating, Foxtail, Giant ([10]; 125 g ai/ha) | Plant response rating, Foxtail, Giant ([10]; 500 g ai/ha) | Plant response rating, Flood, Rice (rice (Oryza sativa); 250 g ai/ha) | Plant response rating, Flood, Ducksalad ([11]; 250 g ai/ha) | Plant response rating, Ragweed ([13]; 125 g ai/ha) | Plant response rating, Galium ([14]; 125 g ai/ha) | Plant response rating, Kochia (kochia (Kochia scoparia) [15]; 125 g ai/ha) | Plant response rating, Blackgrass ([17]; 125 g ai/ha) | Plant response rating, Flood, Sedge, Umbrella ([18]; 250 g ai/ha) | other results
O=C(Nc1cccc(F)c1F)C1C(=O)OCC1c1ccc(C(F)(F)F)cc1 (racemic) [Compound 7] | 0 | 0 | 0 | 20 | 0 | 0 | 0 | 0 | 0 | 0 | 0 | 20 | 50 | 0 | 30 | 0 | 0 | 0 | 0 | 0 | Plant response rating, Kochia (kochia (Kochia scoparia) [1]; 125 g ai/ha): 0; Plant response rating, Kochia (kochia (Kochia scoparia) [1]; 500 g ai/ha): 0; Plant response rating, Barnyardgrass ([2]; 125 g ai/ha): 0; Plant response rating, Barnyardgrass ([2]; 500 g ai/ha): 30; Plant response rating, Foxtail, Giant ([5]; 125 g ai/ha): 30; Plant response rating, Foxtail, Giant ([5]; 500 g ai/ha): 80; Plant response rating, Pigweed ([6]; 125 g ai/ha): 0; Plant response rating, Pigweed ([6]; 500 g ai/ha): 0; Plant response rating, Flood, Barnyardgrass ([9]; 1000 g ai/ha): 0; Plant response rating, Flood, Rice (rice (Oryza sativa); 1000 g ai/ha): 0; Plant response rating, Flood, Ducksalad ([11]; 1000 g ai/ha): 40; Plant response rating, Ragweed ([12]; 125 g ai/ha): 0; Plant response rating, Ragweed ([12]; 500 g ai/ha): 0; Plant response rating, Ragweed ([13]; 500 g ai/ha): 0; Plant response rating, Galium ([14]; 500 g ai/ha): 0; Plant response rating, Kochia (kochia (Kochia scoparia) [15]; 500 g ai/ha): 0; Plant response rating, Ryegrass, Italian ([16]; 125 g ai/ha): 0; Plant response rating, Ryegrass, Italian ([16]; 500 g ai/ha): 0; Plant response rating, Blackgrass ([17]; 500 g ai/ha): 0; Plant response rating, Flood, Sedge, Umbrella ([18]; 1000 g ai/ha): 0
O=C(Nc1ccccc1F)C1C(=O)OCC1c1ccc(C(F)(F)F)cc1 (racemic) [Compound 8] | 0 | 0 | 0 | 20 | 0 | 0 | 0 | 0 | 0 | 0 | 0 | 20 | 40 | 0 | 30 | 0 | 0 | 0 | 0 | 0 | Plant response rating, Kochia (kochia (Kochia scoparia) [1]; 125 g ai/ha): 0; Plant response rating, Kochia (kochia (Kochia scoparia) [1]; 500 g ai/ha): 0; Plant response rating, Barnyardgrass ([2]; 125 g ai/ha): 0; Plant response rating, Barnyardgrass ([2]; 500 g ai/ha): 20; Plant response rating, Foxtail, Giant ([5]; 125 g ai/ha): 20; Plant response rating, Foxtail, Giant ([5]; 500 g ai/ha): 40; Plant response rating, Pigweed ([6]; 125 g ai/ha): 0; Plant response rating, Pigweed ([6]; 500 g ai/ha): 0; Plant response rating, Flood, Barnyardgrass ([9]; 1000 g ai/ha): 0; Plant response rating, Flood, Rice (rice (Oryza sativa); 1000 g ai/ha): 0; Plant response rating, Flood, Ducksalad ([11]; 1000 g ai/ha): 30; Plant response rating, Ragweed ([12]; 125 g ai/ha): 0; Plant response rating, Ragweed ([12]; 500 g ai/ha): 0; Plant response rating, Ragweed ([13]; 500 g ai/ha): 0; Plant response rating, Galium ([14]; 500 g ai/ha): 0; Plant response rating, Kochia (kochia (Kochia scoparia) [15]; 500 g ai/ha): 0; Plant response rating, Ryegrass, Italian ([16]; 125 g ai/ha): 0; Plant response rating, Ryegrass, Italian ([16]; 500 g ai/ha): 0; Plant response rating, Blackgrass ([17]; 500 g ai/ha): 0; Plant response rating, Flood, Sedge, Umbrella ([18]; 1000 g ai/ha): 0
CC1(C(=O)Nc2ccccc2C(F)(F)F)C(=O)OCC1c1ccc(F)cc1 (racemic) [Compound 21] | 0 | 0 | 0 | 30 | 0 | 0 | 0 | 0 | 0 | 0 | 90 | 0 | 0 | 30 | 90 | 0 | 0 | 0 | 0 | 0 | Plant response rating, Ragweed ([13]; 500 g ai/ha): 40; Plant response rating, Galium ([14]; 500 g ai/ha): 30; Plant response rating, Kochia (kochia (Kochia scoparia) [15]; 500 g ai/ha): 0; Plant response rating, Blackgrass ([17]; 500 g ai/ha): 30
CC1(C(=O)Nc2cccc(F)c2F)C(=O)OCC1c1ccc(F)cc1 (racemic) [Compound 22] | 20 |  | 90 |  | 0 |  | 0 |  | 0 |  | 0 | 60 |  | 20 | 0 | 0 | 20 | 0 | 0 | 0 | Plant response rating, Ryegrass, Italian ([3]; 31 g ai/ha): 20; Plant response rating, Barnyardgrass ([4]; 31 g ai/ha): 40; Plant response rating, Corn (corn (Zea mays); 31 g ai/ha): 0; Plant response rating, Wheat ([7]; 31 g ai/ha): 0; Plant response rating, Pigweed ([8]; 31 g ai/ha): 0; Plant response rating, Foxtail, Giant ([10]; 31 g ai/ha): 30; Plant response rating, Ragweed ([13]; 31 g ai/ha): 0; Plant response rating, Galium ([14]; 31 g ai/ha): 0; Plant response rating, Kochia (kochia (Kochia scoparia) [15]; 31 g ai/ha): 0; Plant response rating, Blackgrass ([17]; 31 g ai/ha): 0
